These results are taken from patent US11547679B2, “Mitoriboscins: mitochondrial-based therapeutics targeting cancer cells, bacteria and pathogenic yeast” (LUNELLA BIOTECH, INC., priority 2017, dated 2023).

Values after ≈ are worked out from the molar mass of the structure shown.

Series [1] has as its system MCF7 cells. Nature of the series: Seahorse XF96 metabolic flux: oxygen consumption rate (OCR), ATP. The series is classed as cell-based, human. The note with it: for rank order potency to reduce maximal respiration and ATP production: MCF7, top 10 hits; for mitochondrial oxygen-consumption: MCF7, 72 hours treatment. From the text: (§1) The present approach further involves methods of functional validation at step S105, during which a compound's function as a mitochondrial inhibitor may be confirmed. A number of methods may be used for functional validation, including, for example, metabolic flux analysis, mammosphere assays, viability assays, and antibiotic (anti-bacterial and/or anti-fungal) activity. For example, the inventors determined extracellular acidification rates (ECAR) and real-time oxygen consumption rates (OCR) for MCF7 cells using the Seahorse Extracellular Flux (XF96) analyzer (Seahorse Bioscience, MA, USA). MCF7 cells were maintained in DMEM supplemented with 10% FBS (fetal bovine serum), 2 mM GlutaMAX, and 1% Pen-Strep. 5,000 cells per well were seeded into XF96-well cell culture plates, and incubated overnight at 37° C. in a 5% CO2 humidified atmosphere. After 24 hours, cells were treated with selected compounds showing ATP-depletion without prominent cytotoxicity at various concentrations (or vehicle alone). After 72 hours of treatment, cells were washed in pre-warmed XF assay media (for OCR measurement, XF assay media was supplemented with 10 mM glucose, 1 mM Pyruvate, 2 mM L-glutamine and adjusted at pH 7.4). Cells were maintained in 175 μL/well of XF assay media at 37° C. in a non-CO2 incubator for 1 hour. During incubation, 25 μL of 80 mM glucose, 9 μM oligomycin, 1M 2-deoxyglucose (for ECAR measurement) and 25 μL of 10 μM oligomycin, 9 μM FCCP, 10 μM rotenone, 10 μM antimycin A (for OCR measurement) in XF assay media was loaded into the injection ports of the XFe-96 sensor cartridge. During the experiment, the instrument injected these inhibitors into the wells at a given time point, while ECAR/OCR was measured continuously. ECAR and OCR measurements were normalized by protein content (using the Sulphorhodamine B assay). Data sets were analyzed by XFe-96 software, using one-way ANOVA and Student's t-test calculations. All experiments were performed in triplicate, and results validated the mitochondrial inhibition effects of mitoriboscin compounds described herein. It should be appreciated that numerous methods are known for functional validation, and that persons of skill in the art may select one or more depending on the validation needs (e.g., other assays that measure or approximate mitochondrial function). The present approach involves methods of function validation of mitoriboscin compounds. For example, the inventors assessed functional validation of three candidates using the Seahorse Analyzer, which quantitatively measures oxygen consumption rate (OCR) and extracellular acidification rate (ECAR). OCR is a surrogate marker for OXPHOS and ECAR is a surrogate marker for glycolysis and L-lactate production.

For series [2], the system named is MCF7 cells. The experiment in a line: Mammosphere formation. The series is classed as cell-based, human. The note with it: MCF7, 5 μM. From the text: The present approach involves methods of testing compounds, and in particular mitoriboscins, for anti-cancer properties. As discussed above, vHTS and computational chemistry may be used to identify candidate mitochondrial inhibitors. Those candidates may be tested for specific anti-cancer properties. For examples, the inventors compared seven candidate compounds in parallel for their ability to inhibit mammosphere formation in MCF7 cells. […] For example, 23/G4 (Group 1) reduced mammosphere formation by 50% at this concentration. Similarly, 24/F9 (Group 2) and 24/D4 (Group 3), both reduced mammosphere formation by ˜90%.

Series [3] has as its system Strept. pyogenes ATCC 19615. The experiment in a line: MIC by broth dilution method. The class given is cell-based. Particulars: Strept. pyogenes ATCC 19615, 24 hours at 37° C. How it is done: (§2) The minimal inhibitory concentration (MIC) of the antibacterial compounds may be determined using the broth dilution method, according to CLSI guidelines. Test compound solutions (or antibiotic solutions used as positive controls) were diluted, serially, with MHB medium. Then, the suspensions of the microorganisms, prepared from overnight cultures of bacteria in the MHB medium, at a concentration of 10^6 CFU/ml, were added to each dilution in a 1:1 ratio. McFarland standards were used as a reference to adjust the turbidity of microorganism suspensions. Growth (or lack thereof) of the microorganisms was determined after incubation for 24 hours at 37° C. by turbidimetry (wavelength of 600 nm). […] The susceptibility test by measurement of MIC was performed in triplicate and repeated three times independently.

The next series concerns K. pneumoniae ATCC 13883. Nature of the series: MIC by broth dilution method. The series is classed as cell-based. Particulars: K. pneumoniae ATCC 13883, 24 hours at 37° C. How it is done:
as §2

Another series relates to P. auriginosa ATCC 27853. Nature of the series: MIC by broth dilution method. Particulars: P. auriginosa ATCC 27853, 24 hours at 37° C. The series is classed as cell-based. How it is done:
as §2

In series [4] the test system is MCF7 cells. Nature of the series: Seahorse XF96 metabolic flux: extracellular acidification rate (ECAR), glycolysis. The class given is cell-based, human.
Excerpt: as §1, with “ECAR and OCR measurements were normalized by protein content (using the Sulphorhodamine B assay).” left out, “All experiments were performed in triplicate, and results validated the mitochondrial inhibition effects of mitoriboscin compounds described herein. It should be appreciated that numerous methods are known for functional validation, and that persons of skill in the art may select one or more depending on the validation needs (e.g., other assays that measure or approximate mitochondrial function). The present approach involves methods of function validation of mitoriboscin compounds.” left out, “OCR is a surrogate marker for OXPHOS and ECAR is a surrogate marker for glycolysis and L-lactate production.” left out

The subject of the next series is MRSA ATCC 43300. Nature of the series: MIC by broth dilution method. The class given is cell-based, Methicillin-resistant Staphylococcus aureus. How it is done: as §2, with “nm). MIC 50 and MIC 99 are defined as the minimum inhibitory concentration of the compound required for 50% and 99% inhibition of bacterial growth.” for “nm).”, “independently. Statistical significance was determined using the Student's t-test and values of less than 0.05 were considered significant.” for “independently.”

Series [5] has as its system normal human fibroblasts (hTERT-BJ1 cells). The experiment in a line: Cell viability of normal fibroblasts. The class given is cell-based. Particulars: 5 μM. How it is done: (§3) The present approach includes methods of confirming cell viability. Persons of skill in the art may select one or more methods for confirming cell viability suitable for the particular embodiment. The inventors initially used the Sulphorhodamine (SRB) assay, which is based on the measurement of cellular protein content. After treatment for 72 hours in 96-well plates, cells were fixed with 10% trichloroacetic acid (TCA) for 1 hour in the cold room, and were dried overnight at room temperature. Then, cells were incubated with SRB for 15 min, washed twice with 1% acetic acid, and air dried for at least 1 hour. Finally, the protein-bound dye was dissolved in a 10 mM Tris, pH 8.8 solution and read using the plate reader at 540-nm. Using the SRB assay, the inventors selected only the compounds depleting ATP levels without prominent cytotoxicity for further analysis. Prominent cytotoxicity was defined as fewer than 30% of cells still on the plate. Of course, embodiments employing other cell viability confirmation methodology may select compounds for further analysis based on other considerations as may be known in the art.
(§4) Based on this analysis, the inventors assessed the functional effects of the three candidates on overall viability in MCF7 cell monolayers and normal human fibroblasts (hTERT-BJ1 cells) (FIG. 6). […]

Another series concerns MCF7 cell monolayers. Nature of the series: Cell viability of MCF7 cell monolayers. The series is classed as cell-based, human. As to the method:
as §3, §4

For the compound `CN(C)Cc1cccc(C2CCCN2Cc2ccccc2OCc2cccc(F)c2)n1` (centres unmarked) [25/B3], in the series on MCF7 cells [1] (FIG. 10), the “rank order potency to reduce maximal respiration and ATP production” value is listed as “top 6”.

As for `CCCc1ccc(OCc2ccccc2)c(CN2CCC3(CC2)CC(N(C)C)C(C)(O)CO3)c1` (centres unmarked) [24/D4], the “reduction of mammosphere formation” value with MCF7 cells [2] was approximately 90%. Besides, the “MIC 50%” value (in series [3]; in the series with K. pneumoniae ATCC 13883; in the series with P. auriginosa ATCC 27853) was 16 µg/mL (≈ 34.3 µM) throughout. The “MIC 99%” value (in series [3]; in the series on K. pneumoniae ATCC 13883; in the series on P. auriginosa ATCC 27853) was 32 µg/mL (≈ 68.6 µM) throughout. Moreover, the “effect on glycolysis” value with MCF7 cells [4] is “suppressed”. Also, the “sensitivity of MRSA” value in the series on MRSA ATCC 43300 is “sensitive”. Besides, in the series on MCF7 cells [1], the “mitochondrial oxygen-consumption” value was “dose-dependently inhibited”.

As for `C[C@H]1c2cccc(O)c2C(=O)C2=C(O)[C@]3(O)C(=O)C(C(N)=O)=C(O)[C@@H](N(C)C)[C@@H]3[C@@H](O)[C@@H]21` [DOXYCYCLINE, reference compound], in the series on P. auriginosa ATCC 27853, the MIC50 amounted to 1 µg/mL (≈ 2.25 µM) and the MIC99 amounted to 2 µg/mL (≈ 4.5 µM).

Turning to `CN1CCN(C2CCN(Cc3cc(C(C)(C)C)ccc3OCc3ccccc3)CCC2O)CC1` (centres unmarked) [24/F9], the “reduction of mammosphere formation” value in the series on MCF7 cells [2] is approximately 90%. Besides, the “MIC 50%” value is 32 µg/mL (≈ 68.7 µM) in series [3], 32 µg/mL (≈ 68.7 µM) with K. pneumoniae ATCC 13883 and more than 32 µg/mL with P. auriginosa ATCC 27853. The “MIC 99%” value is 64 µg/mL (≈ 137 µM) in series [3], 64 µg/mL (≈ 137 µM) with K. pneumoniae ATCC 13883 and more than 64 µg/mL against P. auriginosa ATCC 27853. The “effect on glycolysis” value with MCF7 cells [4] is given as “suppressed”. Also, in the series on MCF7 cells [1], the “mitochondrial oxygen-consumption” value is listed as “dose-dependently inhibited”. Moreover, the “rank order potency to reduce maximal respiration and ATP production” value in the series with MCF7 cells [1] (FIG. 10) is listed as “top 6”.

`CN(C)C1CC2(CCN(Cc3cc(Cl)ccc3OCc3ccccc3)CC2)OCC1(C)O` (centres unmarked) [24/H9]: in the series on MCF7 cells [1] (FIG. 10), the “rank order potency to reduce maximal respiration and ATP production” value was “top 6”.

For the compound `CC1(C)S[C@@H]2[C@H](NC(=O)[C@H](N)c3ccc(O)cc3)C(=O)N2[C@H]1C(=O)O` [AMOXICILLIN, reference compound], the “sensitivity of MRSA” value in the series on MRSA ATCC 43300 is on record as “resistant”.

With `CN1CCCN(C2CCN(Cc3cc(Cl)ccc3OCc3ccccc3)CCC2O)CC1` (centres unmarked) [24/H6], in the series with MCF7 cells [1] (FIG. 10), the “rank order potency to reduce maximal respiration and ATP production” value is “top 6”.

Consider `OC1C(NCc2ccccc2)CCCC1Oc1ccccc1Oc1cccc(F)c1` (centres unmarked) [23/E9], for which the “rank order potency to reduce maximal respiration and ATP production” value in the series on MCF7 cells [1] (FIG. 10) was “top 6”.

For the compound `OC1C(NCc2ccccc2)CCCC1Oc1ccccc1Oc1ccc(Cl)cc1` (centres unmarked) [23/G4], in the series on MCF7 cells [2], the “reduction of mammosphere formation” value is 50%. Moreover, the “effect on viability of hTERT-BJ1 cells” value in series [5] is on record as “no effect”. For the same compound, the “MIC 50%” value is 4 µg/mL (≈ 9.44 µM) in [3], 16 µg/mL (≈ 37.7 µM) against K. pneumoniae ATCC 13883 and 16 µg/mL (≈ 37.7 µM) against P. auriginosa ATCC 27853. Besides, the “MIC 99%” value in [3] is 8 µg/mL (≈ 18.9 µM); against K. pneumoniae ATCC 13883 it was 32 µg/mL (≈ 75.5 µM); in the series with P. auriginosa ATCC 27853, 32 µg/mL (≈ 75.5 µM). Besides, in the series with MCF7 cells [4], the “increase in glycolysis rates” value was “more than 1.5 fold”. Further, the “effect on overall cell viability of MCF7 monolayers” value in the series on MCF7 cell monolayers (500 nM and 2.5 μM) is “little or no effect”. Moreover, the “reduction of viability of MCF7 cells” value in the series on MCF7 cell monolayers (5 μM) is 70%. Besides, the “sensitivity of MRSA” value in the series on MRSA ATCC 43300 is “sensitive”. In addition, the “reduction of ATP levels” value in the series with MCF7 cells [1] (MCF7, 500 nM) is more than 50%; with MCF7 cells [1] (MCF7, 2.5 μM) it was approximately 75%. Also, the “reduction in ATP levels” value in the series with MCF7 cells [1] (MCF7, 5 μM, FIG. 10) was “greater than 75%”. The “mitochondrial oxygen-consumption” value in the series with MCF7 cells [1] is “dose-dependently inhibited”. In addition, the “rank order potency to reduce maximal respiration and ATP production” value with MCF7 cells [1] (FIG. 10) is “top 6”.
